According to ChEMBL document CHEMBL1201862, “PubChem BioAssay data set” (2004):
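Test compounds were applied to cells in 96-well plates for 48 hours at 5 doses. At the GI50, growth is halved.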 Active and inactive are the calls of the source. No stated cut-off is given here; in the data, active = GI50 up to about 1.1 µM and inactive = higher.

Tests used:
Experiment in all cases: DTP human tumour cell line panel, 48 h
Malme-3M = tested on: Malme-3M
Hs-578T = tested on: Hs-578T
SR = tested on: SR
ACHN = tested on: ACHN
UACC-257 = tested on: UACC-257
SNB-75 = tested on: SNB-75
HOP-92 = tested on: HOP-92
T47D = tested on: T47D
EKVX = tested on: EKVX
CCRF-CEM = tested on: CCRF-CEM
OVCAR-8 = tested on: OVCAR-8
NCI-H460 = tested on: NCI-H460
NCI-H23 = tested on: NCI-H23
SF-295 = tested on: SF-295
RXF 393 = tested on: RXF 393
KM12 = tested on: KM12
HOP-62 = tested on: HOP-62
NCI/ADR-RES = tested on: NCI/ADR-RES
SK-MEL-5 = tested on: SK-MEL-5
DU-145 = tested on: DU-145
PC-3 = tested on: PC-3
HCC 2998 = tested on: HCC 2998
RPMI-8226 = tested on: RPMI-8226
M14 = tested on: M14
SF-539 = tested on: SF-539
MDA-MB-435 = tested on: MDA-MB-435
MOLT-4 = tested on: MOLT-4
NCI-H226 = tested on: NCI-H226
TK-10 = tested on: TK-10
A549 = tested on: A549
UACC-62 = tested on: UACC-62
A498 = tested on: A498
MDA-MB-231 = tested on: MDA-MB-231
LOX IMVI = tested on: LOX IMVI
CAKI-1 = tested on: CAKI-1
SN12C = tested on: SN12C
IGROV-1 = tested on: IGROV-1
SK-OV-3 = tested on: SK-OV-3
786-0 = tested on: 786-0
UO-31 = tested on: UO-31
MDA-N = tested on: MDA-N
NCI-H522 = tested on: NCI-H522
SW-620 = tested on: SW-620
SK-MEL-2 = tested on: SK-MEL-2
COLO 205 = tested on: COLO 205
SNB-19 = tested on: SNB-19
K562 = tested on: K562
MCF7 = tested on: MCF7
SF-268 = tested on: SF-268
OVCAR-3 = tested on: OVCAR-3
HL-60 = tested on: HL-60
HCT-15 = tested on: HCT-15
BT-549 = tested on: BT-549
SK-MEL-28 = tested on: SK-MEL-28
OVCAR-4 = tested on: OVCAR-4
OVCAR-5 = tested on: OVCAR-5
HCT-116 = tested on: HCT-116
HT-29 = tested on: HT-29
U-251 = tested on: U-251

O=S(=O)(O)C(CO)c1ccccc1.O=S(=O)(O)Cc1ccccc1 (stereo not given)
GI50 (Malme-3M): > 100 µM (inactive) | GI50 (Hs-578T): 96.4 µM (inactive) | GI50 (SR): > 100 µM (inactive) | GI50 (ACHN): > 100 µM (inactive) | GI50 (UACC-257): > 100 µM (inactive) | GI50 (SNB-75): > 100 µM (inactive) | GI50 (HOP-92): > 100 µM (inactive) | GI50 (T47D): > 100 µM (inactive) | GI50 (EKVX): > 100 µM (inactive) | GI50 (CCRF-CEM): 19.6 µM (inactive) | GI50 (OVCAR-8): > 100 µM (inactive) | GI50 (NCI-H460): > 100 µM (inactive) | GI50 (NCI-H23): > 100 µM (inactive) | GI50 (SF-295): > 100 µM (inactive) | GI50 (RXF 393): > 100 µM (inactive) | GI50 (KM12): > 100 µM (inactive) | GI50 (HOP-62): > 100 µM (inactive) | GI50 (NCI/ADR-RES): > 100 µM (inactive) | GI50 (SK-MEL-5): > 100 µM (inactive) | GI50 (DU-145): > 100 µM (inactive) | GI50 (PC-3): > 100 µM (inactive) | GI50 (HCC 2998): > 100 µM (inactive) | GI50 (RPMI-8226): > 100 µM (inactive) | GI50 (M14): > 100 µM (inactive) | GI50 (SF-539): > 100 µM (inactive) | GI50 (MDA-MB-435): > 100 µM (inactive) | GI50 (MOLT-4): > 100 µM (inactive) | GI50 (NCI-H226): > 100 µM (inactive) | GI50 (TK-10): > 100 µM (inactive) | GI50 (A549): > 100 µM (inactive) | GI50 (UACC-62): > 100 µM (inactive) | GI50 (A498): > 100 µM (inactive) | GI50 (MDA-MB-231): > 100 µM (inactive) | GI50 (LOX IMVI): > 100 µM (inactive) | GI50 (CAKI-1): > 100 µM (inactive) | GI50 (SN12C): > 100 µM (inactive) | GI50 (IGROV-1): > 100 µM (inactive) | GI50 (SK-OV-3): > 100 µM (inactive) | GI50 (786-0): > 100 µM (inactive) | GI50 (UO-31): > 100 µM (inactive) | GI50 (MDA-N): > 100 µM (inactive) | GI50 (NCI-H522): > 100 µM (inactive) | GI50 (SW-620): > 100 µM (inactive) | GI50 (SK-MEL-2): > 100 µM (inactive) | GI50 (COLO 205): > 100 µM (inactive) | GI50 (SNB-19): > 100 µM (inactive) | GI50 (K562): > 100 µM (inactive) | GI50 (MCF7): > 100 µM (inactive) | GI50 (SF-268): > 100 µM (inactive) | GI50 (OVCAR-3): > 100 µM (inactive) | GI50 (HL-60): 5.35 µM (inactive) | GI50 (HCT-15): > 100 µM | GI50 (BT-549): > 100 µM (inactive) | GI50 (SK-MEL-28): > 100 µM (inactive) | GI50 (OVCAR-4): > 100 µM (inactive) | GI50 (OVCAR-5): > 100 µM (inactive) | GI50 (HCT-116): > 100 µM (inactive) | GI50 (HT-29): > 100 µM (inactive) | GI50 (U-251): > 100 µM (inactive)

CCOP(=O)(OCC)C(Cc1cn(S(=O)(=O)c2ccc(C)cc2)cn1)C(=O)O (stereo not given)
GI50 (Malme-3M): > 100 µM (inactive) | GI50 (Hs-578T): > 100 µM (inactive) | GI50 (SR): > 100 µM (inactive) | GI50 (ACHN): > 100 µM (inactive) | GI50 (SNB-75): > 100 µM (inactive) | GI50 (HOP-92): > 100 µM (inactive) | GI50 (T47D): > 100 µM (inactive) | GI50 (EKVX): > 100 µM (inactive) | GI50 (CCRF-CEM): > 100 µM (inactive) | GI50 (OVCAR-8): > 100 µM (inactive) | GI50 (NCI-H460): > 100 µM (inactive) | GI50 (NCI-H23): > 100 µM (inactive) | GI50 (SF-295): > 100 µM (inactive) | GI50 (RXF 393): > 100 µM (inactive) | GI50 (KM12): > 100 µM (inactive) | GI50 (HOP-62): > 100 µM (inactive) | GI50 (NCI/ADR-RES): > 100 µM (inactive) | GI50 (SK-MEL-5): > 100 µM (inactive) | GI50 (DU-145): > 100 µM (inactive) | GI50 (PC-3): > 100 µM (inactive) | GI50 (HCC 2998): > 100 µM (inactive) | GI50 (RPMI-8226): > 100 µM (inactive) | GI50 (M14): > 100 µM (inactive) | GI50 (SF-539): > 100 µM (inactive) | GI50 (MDA-MB-435): > 100 µM (inactive) | GI50 (MOLT-4): > 100 µM (inactive) | GI50 (NCI-H226): > 100 µM (inactive) | GI50 (TK-10): > 100 µM (inactive) | GI50 (A549): > 100 µM (inactive) | GI50 (UACC-62): > 100 µM (inactive) | GI50 (A498): > 100 µM (inactive) | GI50 (MDA-MB-231): > 100 µM (inactive) | GI50 (LOX IMVI): > 100 µM (inactive) | GI50 (CAKI-1): > 100 µM (inactive) | GI50 (SN12C): > 100 µM (inactive) | GI50 (IGROV-1): > 100 µM (inactive) | GI50 (SK-OV-3): > 100 µM (inactive) | GI50 (786-0): > 100 µM (inactive) | GI50 (UO-31): > 100 µM (inactive) | GI50 (MDA-N): > 100 µM (inactive) | GI50 (NCI-H522): > 100 µM (inactive) | GI50 (SW-620): > 100 µM (inactive) | GI50 (SK-MEL-2): > 100 µM (inactive) | GI50 (COLO 205): > 100 µM (inactive) | GI50 (SNB-19): > 100 µM (inactive) | GI50 (K562): > 100 µM (inactive) | GI50 (MCF7): > 100 µM (inactive) | GI50 (SF-268): > 100 µM (inactive) | GI50 (OVCAR-3): > 100 µM (inactive) | GI50 (HL-60): > 100 µM (inactive) | GI50 (HCT-15): > 100 µM | GI50 (BT-549): > 100 µM (inactive) | GI50 (SK-MEL-28): > 100 µM (inactive) | GI50 (OVCAR-4): > 100 µM (inactive) | GI50 (OVCAR-5): > 100 µM (inactive) | GI50 (HCT-116): > 100 µM (inactive) | GI50 (HT-29): > 100 µM (inactive) | GI50 (U-251): > 100 µM (inactive)

CC(C)OP(=O)(OC(C)C)C(C(C)C)N(C)/C(N)=N/C#N (stereo not given)
GI50 (Malme-3M): > 100 µM (inactive) | GI50 (Hs-578T): > 100 µM (inactive) | GI50 (SR): > 100 µM (inactive) | GI50 (ACHN): > 100 µM (inactive) | GI50 (UACC-257): > 100 µM (inactive) | GI50 (SNB-75): > 100 µM (inactive) | GI50 (HOP-92): > 100 µM (inactive) | GI50 (T47D): > 100 µM (inactive) | GI50 (EKVX): > 100 µM (inactive) | GI50 (CCRF-CEM): > 100 µM (inactive) | GI50 (OVCAR-8): > 100 µM (inactive) | GI50 (NCI-H460): > 100 µM (inactive) | GI50 (NCI-H23): > 100 µM (inactive) | GI50 (SF-295): > 100 µM (inactive) | GI50 (RXF 393): > 100 µM (inactive) | GI50 (KM12): > 100 µM (inactive) | GI50 (HOP-62): > 100 µM (inactive) | GI50 (NCI/ADR-RES): > 100 µM (inactive) | GI50 (SK-MEL-5): > 100 µM (inactive) | GI50 (DU-145): > 100 µM (inactive) | GI50 (PC-3): > 100 µM (inactive) | GI50 (HCC 2998): > 100 µM (inactive) | GI50 (RPMI-8226): > 100 µM (inactive) | GI50 (M14): > 100 µM (inactive) | GI50 (SF-539): > 100 µM (inactive) | GI50 (MDA-MB-435): > 100 µM (inactive) | GI50 (MOLT-4): > 100 µM (inactive) | GI50 (NCI-H226): > 100 µM (inactive) | GI50 (TK-10): > 100 µM (inactive) | GI50 (A549): > 100 µM (inactive) | GI50 (UACC-62): > 100 µM (inactive) | GI50 (A498): > 100 µM (inactive) | GI50 (MDA-MB-231): > 100 µM (inactive) | GI50 (LOX IMVI): > 100 µM (inactive) | GI50 (CAKI-1): > 100 µM (inactive) | GI50 (SN12C): > 100 µM (inactive) | GI50 (IGROV-1): > 100 µM (inactive) | GI50 (SK-OV-3): > 100 µM (inactive) | GI50 (786-0): > 10 µM (inactive) | GI50 (UO-31): > 100 µM (inactive) | GI50 (MDA-N): > 100 µM (inactive) | GI50 (NCI-H522): > 100 µM (inactive) | GI50 (SW-620): > 100 µM (inactive) | GI50 (SK-MEL-2): > 100 µM (inactive) | GI50 (COLO 205): > 100 µM (inactive) | GI50 (SNB-19): > 100 µM (inactive) | GI50 (K562): > 100 µM (inactive) | GI50 (MCF7): > 100 µM (inactive) | GI50 (SF-268): > 100 µM (inactive) | GI50 (OVCAR-3): > 100 µM (inactive) | GI50 (HL-60): > 100 µM (inactive) | GI50 (HCT-15): > 100 µM | GI50 (BT-549): > 100 µM (inactive) | GI50 (SK-MEL-28): > 100 µM (inactive) | GI50 (OVCAR-4): > 100 µM (inactive) | GI50 (HCT-116): > 100 µM (inactive) | GI50 (HT-29): > 100 µM (inactive) | GI50 (U-251): > 100 µM (inactive)
